# Results as given in patent publication US20220280607A1, “Treatment of Heart Defects and Conditions in Pediatric Patients” (University of Pittsburgh - Of the Commonwealth System of …, priority 2019, published 2022).
# Test system: adult mouse heart after myocardial infarction
# Assay: Neonatal propranolol treatment followed by adult baseline analysis and myocardial infarction (LAD ligation) with cardiac MRI, AFOG histology and stereology
# Assay type: in vivo
# Description: Mouse myocardial injury model: ICR mice were treated with propranolol (10 μg/g, 2 i.p. injections/day) from P1 to P12. Then, cardiac injury was induced to male mice via performing left anterior descending artery (LAD) ligation at the age of P40 to P60. Briefly, the mice were anesthetized with 4% isoflurane, intubated, and ventilated with a stroke volume of 225 microliters (μl) at 145 breaths/minute. The hearts were exposed by performing thoracotomy and the LAD coronary artery was tied with 8-0 nylon suture. After the chest was […] with 6-0 suture, bupivacaine (8 μg/g) was locally administered through subcutaneous injection. The mice were kept intubated without isoflurane at room temperature until waking up from the anesthesia. Bupivacaine (8 μg/g) was administered by subcutaneous injection in the following 3 days (1 day post injury (dpi) to 3 dpi). The heart function after LAD ligation was measured by cardiac MRI at 1-3 days post injury (dpi, acute injury period) and 10-12 dpi (recovery period), respectively.
# Quantification of cardiomyocytes with unbiased stereology: Mouse hearts were washed in cardioplegia solution (PBS, […] potassium chloride (KCl)), weighed, and fixed with 3.7% formaldehyde at room temperature overnight. The hearts were then placed in 30% sucrose at 4° C. for 48 hours. The atria were cut off and the ventricles were embedded in OCT and sectioned on a Leica CM1950 cryostat in cross-sectional orientation (thickness 15 μm), resulting in 75-80 slides/heart with 4 sections each. For random systematic sampling we used a random number generator ranging between […] to determine the first slide and then selected every 17th slide for staining. Myocardial volume and scar were quantified by point count method on AFOG-stained sections. Briefly, tissue sections were stained with Acid fuchsin-orange G (AFOG; Polizzotti et al.) and photomicrographs were taken on a Leica MZ26 dissector microscope (objective lens 10×). Areas of myocardium (red after AFOG staining) and scar (blue after AFOG staining) were quantified using ImageJ (version 1.51s). The image was overlaid with a grid to determine area per point. The distance between selected sections was calculated (17th slide×4 sections/slide×15 μm section thickness). The LV myocardial volume was measured by counting the number of grids on both LV myocardium and the scar region. We used the optical dissector method to determine the volume density of cardiomyocyte nuclei. The optical dissector operates optimally at 3 μm distance between lookup and counting frames. Adult mouse hearts were sectioned with a cryostat set at 15 μm. Slides were stained with α-actinin and Hoechst and imaged with an A1R laser-scanning confocal microscope (×60 oil lens).
# Briefly, the immunofluorescence stained sections were imaged using a Nikon A1R confocal microscope. We selected four random spots on the technically-best section from each slide and analyzed 20 random samples from each heart. The total number of positive cardiomyocyte nuclei per heart was counted and the mean per sample volume was calculated. Total number of cardiomyocytes (endowment) was calculated as: Number of cardiomyocytes=Number of cardiomyocyte nuclei/(Mono %+2×Bi %[…]+4×Tetra %).
# Adult mouse cardiac MRI: Mice were anesthetized with 4% isoflurane mixed with room air in an induction box for 1 to 3 minutes. The depth of anesthesia was monitored by toe reflex, extension of limbs, and spine positioning. Once an appropriate depth of anesthesia was established, mice were placed on a custom-built mouse holder and the anesthesia was maintained by 1.5 to 2% isoflurane with 100% oxygen via a nose cone. […] The respiration waveform was automatically processed to detect inspiration, expiration, and respiration rate. In-vivo cardiac MRI (CMR) was carried out on a Bruker Biospec 7T/30 system (Bruker Biospin MRI, Billerica, Mass.) with the 35-mm quadrature coil for both transmission and reception.
smiles,measurement,setting,value
"CC(C)NCC(O)COc1cccc2ccccc12 (centres unmarked) [propranolol, 1-naphthalen-1-yloxy-3-(propan-2-ylamino)propan-2-ol]","scar size, determined by histology","12 dpi, AFOG staining, vs control, FIG. 13K",not different
same,"region of myocardium affected by ischemia, visualized by LGE","after MI, vs control, FIG. 13D, 13E",not different
same,relative systolic thickening,"after MI, vs control, FIG. 13J",higher
same,higher cardiomyocyte endowment after MI,"determined by stereology, vs control, FIG. 13L",30%
same,increased cardiomyocyte endowment in adult hearts at baseline,"propranolol 10 μg/g, 2 i.p. injections per day, P1-12, P42, FIG. 13A",persisted until adulthood
same,cardiac function (ejection fraction) of adult hearts at baseline,"propranolol P1-12, P60, FIG. 13B",did not alter
same,thinned region of the LV myocardium after myocardial infarction,"recovery phase, vs control, FIG. 13H, 13I",significantly smaller
same,MRI-measured ejection fraction,"twelve days after MI (recovery phase), FIG. 13F, 13G",42%
same,infarct size by late gadolinium-enhancement vs control,"two days after MI (acute phase), FIG. 13D, 13E",same
same,ejection fraction (MRI) vs control,"two days after MI (acute phase), FIG. 13F, 13G",same
same,heart weight (heart weight to body weight ratio) after MI,"vs control, FIG. 13M",not changed
